Measurements as given in patent publication US11352340B2, “Pyridine and pyridimine compounds as PI3K-gamma inhibitors” (Incyte Corporation, priority 2016, dated 2022).
Counter-ions that a name gives are not always drawn. Like-named read-outs stand apart in the source and are kept apart here.

What was measured:
[1] = molecular target: PI3Kγ (p110γ) Recombinant Human Protein (Homo sapiens (Human), UniProt P48736); assay: PI3K-γ Scintillation Proximity Assay; assay type: biochemical; settings: read-out: PI3K-gamma SPA IC50
Chain of PI3Kγ (p110γ) Recombinant Human Protein (P48736 whole entry): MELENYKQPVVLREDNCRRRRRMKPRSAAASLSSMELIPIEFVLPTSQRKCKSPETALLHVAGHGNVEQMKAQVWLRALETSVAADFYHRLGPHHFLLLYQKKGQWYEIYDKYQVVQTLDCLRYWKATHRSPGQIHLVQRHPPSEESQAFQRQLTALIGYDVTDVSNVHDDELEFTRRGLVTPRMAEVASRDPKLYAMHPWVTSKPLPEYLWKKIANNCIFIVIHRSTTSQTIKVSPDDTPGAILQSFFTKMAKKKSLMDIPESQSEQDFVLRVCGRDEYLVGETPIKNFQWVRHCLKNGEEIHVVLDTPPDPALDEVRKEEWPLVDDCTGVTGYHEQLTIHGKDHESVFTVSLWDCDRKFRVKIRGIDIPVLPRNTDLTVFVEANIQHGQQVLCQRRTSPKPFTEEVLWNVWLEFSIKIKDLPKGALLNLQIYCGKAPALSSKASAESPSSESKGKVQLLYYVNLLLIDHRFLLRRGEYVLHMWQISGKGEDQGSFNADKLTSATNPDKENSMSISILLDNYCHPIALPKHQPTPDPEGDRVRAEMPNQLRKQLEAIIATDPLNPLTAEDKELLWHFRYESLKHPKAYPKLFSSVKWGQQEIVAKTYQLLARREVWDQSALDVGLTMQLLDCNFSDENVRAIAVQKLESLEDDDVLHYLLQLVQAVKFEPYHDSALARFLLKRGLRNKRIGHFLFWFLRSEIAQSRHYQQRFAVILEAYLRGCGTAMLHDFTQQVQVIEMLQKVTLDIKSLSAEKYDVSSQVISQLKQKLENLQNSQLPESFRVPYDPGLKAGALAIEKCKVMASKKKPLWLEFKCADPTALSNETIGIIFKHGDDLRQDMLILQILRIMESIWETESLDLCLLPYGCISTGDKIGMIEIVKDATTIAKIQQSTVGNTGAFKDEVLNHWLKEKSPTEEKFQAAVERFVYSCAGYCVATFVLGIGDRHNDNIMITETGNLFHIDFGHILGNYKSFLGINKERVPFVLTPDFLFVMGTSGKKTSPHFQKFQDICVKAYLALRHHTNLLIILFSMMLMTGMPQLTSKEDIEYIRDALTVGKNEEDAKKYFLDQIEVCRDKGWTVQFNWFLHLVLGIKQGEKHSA
In short: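 Radiometric SPA: reaction at room temperature for 120 min using 2 μM ATP with [γ-33P]ATP tracer, 20 μM PIP2 substrate and 13 nM human PI3Kγ (MOPS pH 6.7, MgCl2, DTT, CHAPS; 2% DMSO). EDTA quench with WGA beads, scintillation count, and IC50 fit of percent-of-control activity.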

[2] = test system: Phosphorylated Ribosomal Protein S6 (RPS6) in THP-1 cells; assay: THP-1 RPS6 ELISA Assay; assay type: cell-based, Human; settings: MCP-1 stimulated, phospho-RPS6 ELISA, read-out: THP p-RPS6 ELISA IC50
Protocol: Example A. THP-1 RPS6 ELISA Assay
To measure the Phosphorylated Ribosomal Protein S6 (RPS6) in cell lysates, THP-1 cells (Human Acute Monocytic Leukemia) are purchased from ATCC (Manassas, Va.) and maintained in RPMI with 10% FBS (Gibco/Life Technologies, Carlsbad, Calif.). For the assay, THP-1 cells are serum starved overnight in RPMI, then plated in RPMI (2×10^5 cells/well in 90 μL) into 96-well flat-bottom tissue culture treated plates (Corning, Corning, N.Y.), in the presence or absence of a concentration range of test compounds. Covered plates are incubated for 2 hours at 37° C., 5% CO2 then treated with or without 10 nM MCP-1 (MYBioSource, San Diego, Calif.) for 15 minutes at 37° C., 5% CO2. Plates are centrifuged at 1600 RPM and supernatants are removed. Cells are lysed in Lysis Buffer (Cell Signaling, Danvers, Mass.) with Protease Inhibitor (Calbiochem/EMD, Germany), PMSF (Sigma, St Louis Mo.), HALTS (Thermo Fisher, Rockford, Ill.) for 30 min on wet ice. Cell lysates are frozen at −80° C. before testing. The lysates are tested in the Human/Mouse/Rat Phospho-RPS6 ELISA (R&D Systems, Inc. Minn, Minn.). The plate is measured using a microplate reader (SpectraMax M5—Molecular Devices, LLC Sunnyvale, Calif.) set to 450 nm with a wavelength correction of 540. IC50 determination is performed by fitting the curve of inhibitor percent inhibition versus the log of the inhibitor concentration using the GraphPad Prism 5.0 software.

[3] = molecular target: PI3Kδ (p110δ/p85α) Recombinant Human Protein (Homo sapiens (Human), UniProt O00329); assay: PI3Kδ Scintillation Proximity Assay; assay type: biochemical; settings: read-out: PI3K-delta SPA IC50
Chain of PI3Kδ (p110δ/p85α) Recombinant Human Protein (O00329 whole entry): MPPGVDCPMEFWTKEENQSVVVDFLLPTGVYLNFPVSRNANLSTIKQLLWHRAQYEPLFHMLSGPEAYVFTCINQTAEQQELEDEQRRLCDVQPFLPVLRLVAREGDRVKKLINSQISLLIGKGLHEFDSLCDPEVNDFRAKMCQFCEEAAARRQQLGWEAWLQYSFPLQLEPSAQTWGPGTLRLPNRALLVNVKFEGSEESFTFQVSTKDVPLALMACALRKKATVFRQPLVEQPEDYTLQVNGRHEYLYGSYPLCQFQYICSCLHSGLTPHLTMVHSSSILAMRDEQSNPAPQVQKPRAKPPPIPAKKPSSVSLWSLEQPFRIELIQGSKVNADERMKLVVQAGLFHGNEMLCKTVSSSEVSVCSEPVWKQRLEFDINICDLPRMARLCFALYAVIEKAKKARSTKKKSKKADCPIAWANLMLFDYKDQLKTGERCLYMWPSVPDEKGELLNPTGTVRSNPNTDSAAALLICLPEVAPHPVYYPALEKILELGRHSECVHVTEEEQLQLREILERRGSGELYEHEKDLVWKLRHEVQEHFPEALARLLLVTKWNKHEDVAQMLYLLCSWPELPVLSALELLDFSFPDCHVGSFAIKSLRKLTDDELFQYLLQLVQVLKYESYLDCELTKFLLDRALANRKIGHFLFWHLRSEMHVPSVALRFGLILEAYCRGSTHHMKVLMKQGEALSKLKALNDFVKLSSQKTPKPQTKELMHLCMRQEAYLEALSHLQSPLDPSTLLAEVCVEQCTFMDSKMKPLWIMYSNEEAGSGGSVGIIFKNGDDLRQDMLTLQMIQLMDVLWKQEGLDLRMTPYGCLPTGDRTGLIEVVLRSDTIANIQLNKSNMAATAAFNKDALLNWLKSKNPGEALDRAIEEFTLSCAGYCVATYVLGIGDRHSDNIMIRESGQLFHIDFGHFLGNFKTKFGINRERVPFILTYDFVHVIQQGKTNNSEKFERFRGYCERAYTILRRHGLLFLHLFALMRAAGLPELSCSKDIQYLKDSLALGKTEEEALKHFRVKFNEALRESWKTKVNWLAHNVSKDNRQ
Chain of PI3Kδ (p110δ/p85α) Recombinant Human Protein (P27986 whole entry partner): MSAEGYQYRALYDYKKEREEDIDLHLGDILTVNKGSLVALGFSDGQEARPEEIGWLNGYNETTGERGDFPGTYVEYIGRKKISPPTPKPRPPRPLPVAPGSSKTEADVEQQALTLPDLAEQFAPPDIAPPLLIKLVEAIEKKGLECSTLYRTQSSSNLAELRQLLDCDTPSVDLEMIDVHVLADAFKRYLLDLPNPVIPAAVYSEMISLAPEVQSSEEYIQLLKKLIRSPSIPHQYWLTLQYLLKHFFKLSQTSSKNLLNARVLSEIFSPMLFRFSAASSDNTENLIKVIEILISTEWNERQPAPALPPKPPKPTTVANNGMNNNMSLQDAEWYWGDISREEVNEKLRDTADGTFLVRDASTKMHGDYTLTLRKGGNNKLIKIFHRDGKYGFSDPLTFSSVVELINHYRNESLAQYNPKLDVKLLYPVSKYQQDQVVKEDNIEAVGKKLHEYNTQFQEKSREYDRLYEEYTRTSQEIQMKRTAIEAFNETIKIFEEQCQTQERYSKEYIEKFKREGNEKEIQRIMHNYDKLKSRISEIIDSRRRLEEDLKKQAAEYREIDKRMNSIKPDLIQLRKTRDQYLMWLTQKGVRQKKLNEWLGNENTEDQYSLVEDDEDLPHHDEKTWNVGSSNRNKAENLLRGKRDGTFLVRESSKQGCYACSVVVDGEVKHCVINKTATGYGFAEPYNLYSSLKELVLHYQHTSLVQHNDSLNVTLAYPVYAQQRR
In short: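 Radiometric read-out: 33P-labelled PIP3 product captured on WGA SPA beads and counted, with IC50 fitted from percent activity relative to DMSO control. Enzyme (3.4 nM) was incubated 120 min at room temperature with 20 μM PIP2 and 2 μM ATP at pH 6.7, 2% DMSO.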

| IC50 [1] [nM] | IC50 ([2]; Homo sapiens) [nM] | IC50 [3] [nM] | SMILES | IC50 [2] [nM] |
| --- | --- | --- | --- | --- |
| ≤ 50 | 300 to 1000 | ≤ 500 | Cc1nc(-c2cc(-c3cncc(C(=O)N(C)CCO)c3)ccn2)[nH]c1C [Example 201, 2′-(4,5-Dimethyl-1H-imidazol-2-yl)-N-(2-hydroxyethyl)-N-methyl-3,4′-bipyridine-5-carboxamide trifluoroacetate salt] |  |
| ≤ 50 | ≤ 300 | ≤ 50 | Cc1nc(-c2cc(-c3cncc(N4CCOCC4)c3)ccn2)[nH]c1C1CC1 [Example 104, 4-(2′-(5-Cyclopropyl-4-methyl-1H-imidazol-2-yl)-3,4′-bipyridin-5-yl)morpholine trifluoroacetate salt] |  |
| ≤ 50 | ≤ 300 | ≤ 50 | COC(=O)C1CCN(C(=O)c2cncc(-c3ccnc(-c4nc(C)c(C)[nH]4)c3)c2)C1 (racemic) [Example 175, Methyl 1-{[2′-(4,5-dimethyl-1H-imidazol-2-yl)-3,4′-bipyridin-5-yl]carbonyl}pyrrolidine-3-carboxylate trifluoroacetate salt] |  |
| ≤ 100 | 300 to 1000 | ≤ 500 | Cc1nc(-c2cc(-c3cncc(N4CC[C@H](O)C4)c3)ccn2)[nH]c1C [Example 232, (3S)-1-[2′-(4,5-Dimethyl-1H-imidazol-2-yl)-3,4′-bipyridin-5-yl]pyrrolidin-3-ol] |  |
| ≤ 500 | > 5000 | ≤ 50 | COc1cncc(-c2ccnc(-c3ncc(C(C)(C)C)[nH]3)c2)c1 [Example 88, 2′-(5-tert-Butyl-1H-imidazol-2-yl)-5-methoxy-3,4′-bipyridine trifluoroacetate salt] |  |
| ≤ 50 | 300 to 1000 | ≤ 50 | Cc1[nH]c(-c2cc(-c3cncc(N4CCOCC4)c3)ccn2)nc1C(=O)N[C@@H]1CCOC1 [Example 270, 5-Methyl-2-(5-morpholin-4-yl-3,4′-bipyridin-2′-yl)-N-[(3R)-tetrahydrofuran-3-yl]-1H-imidazole-4-carboxamide trifluoroacetate salt] |  |
| ≤ 50 | ≤ 300 | ≤ 50 | Cc1[nH]c(-c2cc(-c3cncc(N4CCOCC4)c3)ccn2)nc1C(=O)NC(C)c1cccc(F)c1 (racemic) [Example 277, N-[1-(3-Fluorophenyl)ethyl]-5-methyl-2-(5-morpholin-4-yl-3,4′-bipyridin-2′-yl)-1H-imidazole-4-carboxamide trifluoroacetate salt] |  |
| ≤ 50 | > 5000 | ≤ 50 | COc1cncc(-c2ccnc(-c3ncc(-c4ccc(S(=O)(=O)N(C)C)cc4)[nH]3)c2)c1 [Example 83, 4-(2-(5-Methoxy-3,4′-bipyridin-2′-yl)-1H-imidazol-5-yl)-N,N-dimethylbenzenesulfonamide trifluoroacetate salt] |  |
| ≤ 50 | 300 to 1000 | ≤ 50 | Cc1[nH]c(-c2cc(-c3cncc(N4CCOCC4)c3)ccn2)nc1C(=O)NC(C)C [Example 268, N-Isopropyl-5-methyl-2-(5-morpholin-4-yl-3,4′-bipyridin-2′-yl)-1H-imidazole-4-carboxamide trifluoroacetate salt] |  |
| ≤ 100 | 1000 to 5000 | ≤ 50 | c1ccc(Cn2cc(-c3ccnc(-c4ncc(-c5ccccc5)[nH]4)c3)cn2)cc1 [Example 5, 4-(1-Benzyl-1H-pyrazol-4-yl)-2-(5-phenyl-1H-imidazol-2-yl)pyridine trifluoroacetate salt] |  |
| ≤ 100 | > 5000 | > 500 | CCNc1ncc(-c2cc(-c3cncc(OC)c3)ccn2)[nH]1 [Example 62, N-Ethyl-5-(5-methoxy-3,4′-bipyridin-2′-yl)-1H-imidazol-2-amine Trifluoroacetate Salt] |  |
| ≤ 100 | 300 to 1000 | ≤ 100 | Cc1nc(-c2cc(-c3cncc(C(=O)NCC4CC4)c3)ccn2)[nH]c1C [Example 202, N-(Cyclopropylmethyl)-2′-(4,5-dimethyl-1H-imidazol-2-yl)-3,4′-bipyridine-5-carboxamide trifluoroacetate salt] |  |
| ≤ 50 | > 5000 | > 500 | Cc1[nH]c(-c2cc(-c3cnn(Cc4ccc(Cl)cc4)c3)ccn2)nc1C#N [Example 297, 2-{4-[1-(4-Chlorobenzyl)-1H-pyrazol-4-yl]pyridin-2-yl}-5-methyl-1H-imidazole-4-carbonitrile Trifluoroacetate Salt] |  |
| ≤ 50 | ≤ 300 | ≤ 50 | Cc1nc(-c2cc(-c3cncc(C(=O)N4CCCC4)c3)ccn2)[nH]c1C [Example 151, (2′-(4,5-Dimethyl-1H-imidazol-2-yl)-3,4′-bipyridin-5-yl)(pyrrolidin-1-yl)methanone] |  |
| ≤ 100 | ≤ 300 | ≤ 100 | N#CCn1cc(-c2ccnc(-c3ncc(-c4ccccc4)[nH]3)c2)cn1 [Example 56, 2-(4-(2-(5-Phenyl-1H-imidazol-2-yl)pyridin-4-yl)-1H-pyrazol-1-yl)acetonitrile trifluoroacetate salt] |  |
| ≤ 50 | ≤ 300 | ≤ 50 | Cc1nc(-c2cc(-c3cncc(C(=O)N(C)c4ccccc4)c3)ccn2)[nH]c1C [Example 194, 2′-(4,5-Dimethyl-1H-imidazol-2-yl)-N-methyl-N-phenyl-3,4′-bipyridine-5-carboxamide trifluoroacetate salt] |  |
| ≤ 100 | > 5000 | ≤ 50 | COc1cncc(-c2ccnc(-c3ncc(-c4ccccn4)[nH]3)c2)c1 [Example 87, 5-Methoxy-2′-(5-(pyridin-2-yl)-1H-imidazol-2-yl)-3,4′-bipyridine trifluoroacetate salt] |  |
| ≤ 50 | 300 to 1000 | ≤ 50 | Cc1nc(-c2cc(-c3cncc(C(=O)N4C[C@H](CO)[C@@H](C)C4)c3)ccn2)[nH]c1C [Example 172, ((3R,4R)-1-{[2′-(4,5-Dimethyl-1H-imidazol-2-yl)-3,4′-bipyridin-5-yl]carbonyl}-4-methylpyrrolidin-3-yl)methanol trifluoroacetate salt] |  |

| SMILES | IC50 [1] [nM] | IC50 ([2]; Homo sapiens) [nM] | IC50 [3] [nM] | IC50 [2] [nM] |
| --- | --- | --- | --- | --- |
| CS(=O)(=O)N1CCC(c2c[nH]c(-c3cc(-c4cnn(Cc5ccc(Cl)cc5)c4)ccn3)n2)C1 (single isomer, unassigned) [Example 300, 4-[1-(4-Chlorobenzyl)-1H-pyrazol-4-yl]-2-{4-[1-(methylsulfonyl)pyrrolidin-3-yl]-1H-imidazol-2-yl}pyridine Trifluoroacetate Salt] | ≤ 50 | 300 to 1000 | ≤ 500 |  |
| COC[C@H](NC(=O)c1nc(-c2cc(-c3cncc(N4CCOCC4)c3)ccn2)[nH]c1C)c1ccccc1 [Example 275, N-[(1R)-2-Methoxy-1-phenylethyl]-5-methyl-2-(5-morpholin-4-yl-3,4′-bipyridin-2′-yl) 1H-imidazole-4-carboxamide trifluoroacetate salt] | ≤ 50 |  | ≤ 50 | ≤ 300 |
| Cc1c[nH]c(-c2cc(-c3cncc(S(=O)(=O)N[C@H]4CC[C@H](O)CC4)c3)ccn2)n1 [Example 299, N-((1r,4r)-4-Hydroxycyclohexyl)-2′-(4-methyl-1H-imidazol-2-yl)-[3,4′-bipyridine]-5-sulfonamide trifluoroacetate salt] | ≤ 50 |  | ≤ 50 | ≤ 300 |
